# Experimental data reported in PubChem BioAssay (NCI).
#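 Each compound was tested at five concentrations against cells in 96-well plates for 48 hours. TGI: concentration producing complete growth inhibition.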 Where a SMILES comes first, the peptide text is derived from it. [ ]: non-standard residue; d: D form. The star is where a group is joined. ξ: configuration not given here. NMeF = CN[CH](Cc1ccccc1)C(=O)O; ξNMe2Val = CC(C)C(C(=O)*)N(C)C; NMeV = CN[CH](C(=O)O)C(C)C; OtBu = CC(C)(C)O*
# What was measured:
# Assay in all cases: DTP human tumour cell line panel, 48 h
# NCI-H23 lung = tested on: NCI-H23 lung
# NCI-H460 lung = tested on: NCI-H460 lung
# NCI-H226 lung = tested on: NCI-H226 lung
# SR leukemia = tested on: SR leukemia
# M14 melanoma = tested on: M14 melanoma
# CCRF-CEM leukemia = tested on: CCRF-CEM leukemia
# OVCAR-8 ovarian = tested on: OVCAR-8 ovarian
# A549 NSCLC = tested on: A549 NSCLC
# ACHN renal = tested on: ACHN renal
# OVCAR-3 ovarian = tested on: OVCAR-3 ovarian
Compound,TGI (NCI-H23 lung) [µM],TGI (NCI-H460 lung) [µM],TGI (NCI-H226 lung) [µM],TGI (SR leukemia) [µM],TGI (M14 melanoma) [µM],TGI (CCRF-CEM leukemia) [µM],TGI (OVCAR-8 ovarian) [µM],TGI (A549 NSCLC) [µM],TGI (ACHN renal) [µM],TGI (OVCAR-3 ovarian) [µM]
O=S(=O)(c1ccccc1)c1ccc(-c2nc(-c3ccc4c(c3)Sc3ccccc3S4)cs2)cc1,36.1,> 100,> 100,> 100,> 100,> 100,> 100,> 100,> 100,> 100
CN(C)CC1CCC/C(=C\c2ccc(OC(=O)/C=C/c3ccc(Cl)cc3)cc2)C1=O (stereo not drawn),14.1,18.1,20.2,2.87,20,3.39,19.3,21.6,5.73,12.4
COc1ccc(NC(=O)C(=O)Cc2ccc([N+](=O)[O-])c([N+](=O)[O-])c2CC(=O)C(=O)Nc2ccc(OC)cc2OC)c(OC)c1,> 100,> 100,> 100,> 100,> 100,> 100,> 100,> 100,> 100,> 100
CC(=O)NC(C)(C)C1CCC(C)CC1 (stereo not drawn),> 100,> 100,> 100,> 100,> 100,> 100,> 100,> 100,> 100,> 100
CC[C@]12C=CCN3CC[C@@]4(c5cc(Br)c(OC)cc5N(C)[C@H]4[C@@](O)(C(=O)NC(Cc4c[nH]c5ccccc45)C(=O)OC)[C@@H]1O)[C@@H]32 (stereo partly drawn),> 100,,> 100,34.9,> 100,> 100,> 100,> 100,> 100,> 100
CCNC(=S)NNC(=O)c1ccccc1Nc1ccccc1C(=O)NNC(=S)NCC,> 100,> 100,> 100,> 100,> 100,> 100,> 100,> 100,> 100,> 100
O=C(O)c1nn(-c2ccccc2)nc1-c1nn(-c2ccccc2)nc1C(=O)O,> 100,> 100,> 100,> 100,> 100,> 100,> 100,> 100,> 100,> 100
CSc1nc(NCc2ccccc2)c2cnn(COCCO)c2n1,> 100,> 100,> 100,> 100,> 100,> 100,> 100,> 100,62.1,> 100
COc1cc(/C=C/C(=N\NC(N)=S)c2sc(NNC(C)=O)nc2C)ccc1O,> 100,> 100,> 100,> 100,> 100,> 100,> 100,> 100,> 100,> 100
Brc1ccc(-c2cc3c(cc2C2SCCS2)OCO3)cc1,> 100,> 100,40.3,86.9,> 100,> 100,> 100,> 100,> 100,75.9
CCN(C(=O)N[C@H](C(=O)N[C@@H](CSC)C(=O)N[C@@H](C)C(=O)OC)C(C)C)c1ccccc1,33.4,32.5,31.8,18.2,28.7,19.3,38.2,55,28.9,34.5
C=C1CCOC2(C(O)C(C)(O)CO)NC(=O)C1(O)NC2=O (stereo not drawn),> 100,> 100,> 100,> 100,> 100,> 100,> 100,> 100,> 100,> 100
CC(C)C(C(=O)N(C)C(Cc1ccccc1)C(=O)N(C)C(C(=O)N(C)C(C(=O)N1CCCC1C(=O)OC(C)(C)C)C(C)C)C(C)C)N(C)C (stereo not drawn) (ξNMe2Val-[NMeF][NMeV][NMeV]P-OtBu; configuration not given here),> 100,> 100,> 100,> 100,51.2,> 100,> 100,> 100,> 100,> 100
C/C(=N\NC(N)=S)c1nc2ncccc2[nH]1,,> 100,> 91.4,> 100,> 100,> 100,> 100,> 100,> 100,> 100
COc1cc2c[n+](C)c3c4cc(OC)c(OCc5ccccc5)cc4c(OCc4ccccc4)cc3c2cc1OC,20.5,> 100,43.9,6,21.6,72.4,19.6,> 88.8,> 100,10.8
COc1ccc2c(c1)/c(=C/C#N)c1c3ccccc3[n+](C)n21,45.4,32.9,21.4,> 100,32.4,13.1,> 100,16.2,32,4.29
COc1ccc(C2=Nc3ccccc3N=C(SC)C2)cc1,> 100,71.9,> 100,> 100,> 100,42,> 100,> 100,> 100,> 100
COc1ccc(-c2oc3cc(O)c(OC)c(O)c3c(=O)c2O)cc1,> 100,26.4,24.4,20.8,> 100,14.8,> 75.3,18,10.7,> 100
